# Where “and” joins values, the source holds several entries; their conditions need not be identical. Identical values can stand only once.
# Target: Nonstructural protein 3 (Zika virus, UniProt A0A024AXB9)
# Experiment: Functional biochemical assay to identify treatments for viral infectious disease that targets Zika NS2B-NS3 protease. Utilizing a direct enzyme activity measurement method, reading the fluorescence intensity is used to characterize the relative potency of inhibitors as IC50.
# Design: species or system PRVABC59
# Nonstructural protein 3, sequence (A0A024AXB9 whole entry): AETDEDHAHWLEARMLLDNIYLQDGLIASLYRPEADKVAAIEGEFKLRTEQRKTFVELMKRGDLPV
row,IC50,Compound
1,> 99.5 µM,CC[C@H](Cc1nnn[nH]1)c1ccc(NC(=O)c2cc(Cl)cc(C#N)c2)cc1
2,72 µM,NCc1cccc(NC(=O)[C@H](NC(=O)OCc2ccccc2)c2ccc(Br)cc2F)c1
3,2.72 µM and 2.68 µM and 3.22 µM and 3.04 µM,NCc1cccc(NC(=O)C[C@H](NC(=O)OCc2ccccc2)c2ccc(OCc3ccccc3)c(Br)c2)c1
4,> 99.5 µM,NC1(c2cccc(NC(=O)c3cc(Cl)cc(NC(=O)OCc4ccccc4)c3)c2)CCOCC1
5,68.9 µM,COc1cc(Br)ccc1[C@@H](NC(=O)OCc1ccccc1)C(=O)Nc1cccc(CN)c1
6,> 25 µM,Cc1c(C(=O)Nc2cc(C(=O)N3Cc4cn[nH]c4C3)ccn2)cc(C2CC2)n1C
7,9.31 µM,NCc1cc(C=C2CC(C(=O)O)C2)cc(NC(=O)c2cc(Cl)cc(NC(=O)OCc3ccccc3)c2)c1 (configuration not stated)
8,> 99.5 µM,CCc1onc(-c2ccc(Br)cc2)c1C(=O)Nc1cccc(CN)c1
9,> 99.5 µM,CCc1onc(C2CCOCC2)c1C(=O)Nc1cccc(CN)c1
10,2.34 µM,CC(C)c1ccc(Cl)cc1C(=O)Nc1ccc2c(c1)CNC2
11,> 99.5 µM,CCn1ccnc(N2C[C@H](c3c[nH]c4ccccc34)[C@H](OC(C)=O)C2)c1=O
12,> 99.5 µM,CCn1ncc(-c2noc3nc(C)cc(C(=O)Nc4cccc(CN)c4)c23)c1C
13,53.6 µM and 54.4 µM,NCc1cccc(NC(=O)[C@@H](NC(=O)OCc2ccccc2)c2ccc(Br)cc2)c1
14,> 99.5 µM,CCN1CC[C@H](COc2cccc([C@H](NC(=O)OCc3ccccc3)C(=O)Nc3cccc(CN)c3)c2)C1
15,5.01 µM,N[C@H]1CC[C@H](c2ccc(NC(=O)c3cc(Cl)cc(NC(=O)OCc4ccccc4)c3)cc2)C1
16,7.58 µM,O=C(Nc1ccc2c(c1)CNC2)c1cc(O)nc(C2CC2)c1
17,> 25 µM,NCc1cc(CC(=O)O)cc([C@H]2C[C@@H]2c2cc(Cl)cc(NC(=O)OCc3ccccc3)c2)c1
18,0.749 µM,CCNC(=O)Nc1cc(Cl)cc(C(=O)Nc2ccc3c(c2)CNCCO3)c1
19,> 99.5 µM,C[C@H]1C[C@@H](C(=O)Nc2cccc(CN)c2)CC(=O)N1
20,> 99.5 µM,O=C(Nc1ccc2c(c1)CCCN2)c1cc(Cl)cc2[nH]ncc12
21,> 99.5 µM,c1ccc2c(CN3CC[C@H](c4c[nH]c5ccccc45)C3)c[nH]c2c1
22,> 25 µM,Cc1c(C(=O)Nc2cc(-c3cccnc3)ccn2)cc(C#N)n1C
23,> 25 µM,O=C(Nc1ccc2c(c1)CNC2)N1CCC[C@H]1Cc1cc2ccccc2o1
24,7.24 µM,O=C(Nc1cc(Cl)cc(C(=O)Nc2cc(Br)cc(-c3nnn[nH]3)c2)c1)OCc1ccccc1
25,50.6 µM,NCc1ccc(I)c(NC(=O)c2cc(Cl)cc(NC(=O)OCc3ccccc3)c2)c1

row,IC50,Compound
1,53.8 µM,NCc1cccc(NC(=O)[C@H]2c3ccc(Br)cc3CCN2C(=O)OCc2ccccc2)c1
2,83.2 µM,CN(C)c1ccc(/C=C/C(=O)C(=O)N2CCOCC2)cc1
3,> 99.5 µM,Cc1cc(OCc2ccccc2)ccc1NS(=O)(=O)c1ccc(Cl)cc1C(=O)O
4,> 99.5 µM,O=C(O)c1cc(Cl)ccc1NS(=O)(=O)c1ccc(Oc2ccccc2Cl)nc1
5,> 99.5 µM,c1ccc2[nH]c(CC3CCN(Cc4nccs4)CC3)nc2c1
6,7.03 µM and 8.01 µM,COc1cccc(-c2ccc([C@@H](NC(=O)OCc3ccccc3)C(=O)Nc3cccc(CN)c3)cc2)c1
7,> 99.5 µM,NCc1cccc(NC(=O)[C@@H](NC(=O)OCc2ccccc2)C2CCN(S(=O)(=O)[C@H]3CCOC3)CC2)c1
8,5.23 µM,O=C(Nc1cc(Cl)cc(C(=O)Nc2ccc(CC3CCNCC3)cc2)c1)OCc1ccccc1
9,0.159 µM,O=C(Nc1ccc2c(c1)CNC2)c1cc(Cl)cc2c1CCC2
10,> 99.5 µM,CS(=O)(=O)Nc1cc(Cl)cc(C(=O)Nc2cccc(CN)c2)c1
11,> 99.5 µM,CCn1cc(C(=O)Nc2ccccc2)nc(N2CC[C@@H](CO)C2)c1=O
12,0.161 µM and 0.559 µM,CC(C)c1nnc(-c2nc3c(C(=O)Nc4ccc5c(c4)CNC5)cc(F)cc3[nH]2)s1
13,39.4 µM,O=C(Nc1cc(Cl)cc(-c2cnn(Cc3ccc(C(=O)O)cc3)c2)c1)OCc1ccccc1
14,> 99.5 µM,C=CC[C@H](Nc1cncc(Cl)c1)c1cccc(-c2nn[nH]n2)c1
15,8.24 µM,O=C(Nc1ccc2c(c1)CNC2)c1cccc2c1OCCN2
16,> 99.5 µM,CCn1cc(-c2ccc(S(C)(=O)=O)cc2)nc(N2CC[C@@H](CO)C2)c1=O
17,> 99.5 µM,NCc1cccc(NC(=O)c2c(C(F)F)nc3cnccn23)c1
18,> 25 µM,O=C1C[C@H]2CN(C(=O)Nc3ccc4c(c3)CNC4)CC[C@H]2N1
19,> 99.5 µM,CN1CCN(C2CCN(C(=O)c3cc(C=O)n(C)c3)CC2)CC1
20,> 25 µM,O=C(Nc1ccc2c[nH]nc2c1)c1cc(Cl)cc2[nH]ncc12
21,> 99.5 µM,NCc1cccc(NC(=O)[C@H]2CCCN(C(=O)CC3CC3)C2)c1
22,19.5 µM,O=C(NS(=O)(=O)C1CC1)c1cc(Cl)ccc1NS(=O)(=O)c1ccc(Oc2ccccc2Cl)cc1
23,10.9 µM,CC(C)NC(=O)[C@H](Nc1ccc2c(c1)CNC2)c1cccc2cn[nH]c12
24,> 99.5 µM,Cc1cc(C(=O)Nc2cccc(CN)c2)cc(NCC(F)(F)F)n1
25,> 25 µM,O=C1Cc2cc(C(=O)Nc3ccc4c(c3)CNC4)c(Cl)cc2N1

row,IC50,Compound
1,> 25 µM,CO[C@]1(C(=O)Nc2ccc3c(c2)C(=O)OC3)CCCNC1
2,> 25 µM,NCCCc1ccnc(NC(=O)c2cc(C3CC3)no2)c1
3,> 99.5 µM,O=C(Nc1cc(Cl)cc(C(=O)N2CCC(c3nn[nH]n3)CC2)c1)OCc1ccccc1
4,> 99.5 µM,COc1ncc(C(=O)Nc2cccc(CN)c2)cc1NC(=O)OCc1ccccc1
5,33.1 µM,NC12CCC(CNC(=O)c3cc(Cl)cc(NC(=O)OCc4ccccc4)c3)(CC1)OC2
6,> 99.5 µM,CC(C)CNC(=O)[C@H](Nc1cccc(-c2nnn[nH]2)c1)c1cc(Cl)cc(C2CC2)c1
7,6.91 µM,NCc1ccc2c(c1)[C@H]1OCCC[C@H]1[C@H](c1cc(Cl)cc(NC(=O)OCc3ccccc3)c1)N2
8,> 99.5 µM,CCn1c(=O)c(N2CC[C@H](c3nncs3)C2)nc2ccccc21
9,50.6 µM,c1cnc(C2CCN(Cc3c[nH]c4ccccc34)CC2)nc1
10,> 99.5 µM,NC(=O)c1[nH]c2ccc(Br)cc2c1Cc1ccc(-c2nnn[nH]2)cc1
11,> 99.5 µM,Brc1cnc(Sc2ncc[nH]2)nc1
12,> 99.5 µM,NCc1cccc(NC(=O)Cc2cccc(Oc3ccncc3Br)c2)c1
13,> 99.5 µM,CC1(C)CNC[C@H](C(=O)Nc2cccc(CN)c2)C1
14,9.21 µM,O=C(Nc1ccc(C2CCNCC2)cc1)c1cc(Cl)cc2[nH]ncc12
15,0.749 µM,Cc1ccc(S(=O)(=O)CNC(=O)[C@H](Nc2ccc3c(c2)CNC3)c2cc(Cl)cc3[nH]ncc23)cc1
16,> 25 µM,Cc1c(C(=O)Nc2cc(C(=O)N3CC4(CCO4)C3)ccn2)cc(C2CC2)n1C
17,> 99.5 µM,NCc1cccc(NC(=O)[C@@H](NC(=O)OCc2ccccc2)C2CCN(C(=O)c3cscn3)CC2)c1
18,> 99.5 µM,COC[C@H](NC(=O)c1cc(Cl)cc(NC(=O)OCc2ccccc2)c1)c1nnn[nH]1
19,> 99.5 µM,Brc1cnn(C2CCN(Cc3csnn3)CC2)c1
20,> 99.5 µM,COc1c(C(=O)N(C)C)cc(Cl)cc1S(=O)(=O)Nc1cccc(-c2nnn[nH]2)c1
21,> 99.5 µM,CCCC[C@H](NC(C)=O)C(=O)N[C@H](C(=O)Nc1ccc(C(N)=O)cc1)c1ccc(OCc2ccccc2)cc1
22,> 99.5 µM,C[C@@H]1CCC[C@H](C(=O)Nc2cccc(CN)c2)O1
23,> 99.5 µM,CN(C)Cc1cccc(-c2ccc(S(=O)(=O)Nc3ccc(Cl)cc3C(=O)O)cc2)c1
24,> 25 µM,O=C1Cc2c(cccc2C(=O)N[C@H]2CCSC3(CCOCC3)C2)N1
25,> 99.5 µM,CCn1c(=O)c(N2C[C@@H]3[C@H](C2)[C@H]2CC[C@@H]3O2)nc2ccccc21

row,IC50,Compound
1,27.6 µM,O=C(Nc1cc(Cl)cc(C(=O)Nc2cccc([C@H]3CCCN3)c2)c1)OCc1ccccc1
2,0.087 µM and 0.058 µM,O=C(Nc1ccc2c(c1)CNC2)c1cc(Cl)cc2[nH]c(-c3ccc(F)cc3O)nc12
3,> 99.5 µM,NCc1nc(-c2ccc(NC(=O)c3cc(Cl)cc(NC(=O)OCc4ccccc4)c3)cc2)n[nH]1
4,> 25 µM,O=C(Nc1cc(-c2cccnc2)ccn1)c1csc(C2CC2)n1
5,90.4 µM and > 99.5 µM,CCOCCNC(=O)c1cc(Cl)ccc1NS(=O)(=O)c1ccc(Oc2ccccc2Cl)cc1
6,48.7 µM,NCc1cccc(NC(=O)C[C@H](NC(=O)OCc2ccccc2)c2ccc(Br)cc2)c1
7,> 99.5 µM,CN(C)C[C@@]1(O)CCN(C(=O)c2cc(C=O)c[nH]2)C1
8,37.2 µM,CC(C)(C)Cn1c(=O)[nH]c2cccc(C(=O)Nc3cccc(CN)c3)c21
9,> 99.5 µM,COC(=O)[C@@H]1CC2(CC[C@@H]1NS(=O)(=O)c1ccc(Oc3ccccc3Cl)cc1)CC2
10,0.022 µM and 0.023 µM and 0.014 µM,O=C(Nc1ccc2c(c1)CNC2)c1cc(F)cc2[nH]c(-c3ccc(F)cc3)nc12
11,> 99.5 µM,O=C(O)c1cc(Cl)ccc1S(=O)(=O)NC1CCN(S(=O)(=O)c2ccc(I)cc2)CC1
12,> 99.5 µM,CNc1cc(COc2cccnc2F)nc(N2CCNCC2)n1
13,5.66 µM,NCc1cc(NC(=O)c2cc(Cl)cc(NC(=O)OCc3ccccc3)c2)cc([C@@H]2C[C@H]2C(=O)O)c1
14,> 99.5 µM,O=c1c(N2CC[C@H](CO)C2)nccn1C1CC1
15,> 99.5 µM,CCc1cc(C(=O)Nc2ccc3c(c2)CNC3)sc1-c1ccc(Cl)cc1
16,> 99.5 µM,CC(C)c1cc(S(=O)(=O)N[C@H](C(=O)Nc2cccc(CN)c2)c2ccc(OCc3ccccc3)cc2)on1
17,30.8 µM,O=C(Nc1cc(Cl)cc(C(=O)Nc2cccc(-n3nn[nH]c3=O)c2)c1)OCc1ccccc1
18,> 99.5 µM,O=C(Nc1cccc([C@@H]2C[C@H]2C(=O)O)c1)c1cc(Cl)cc2[nH]ncc12
19,> 25 µM,Cc1cc(NC(=O)c2cc(C3CC3)n(C)c2C)ccc1N1CCCC1=O
20,> 99.5 µM,CCn1c(=O)c(N2CC[C@@]23CCN(C)C3)nc2ccccc21
21,47.4 µM,O[C@@H]1CN(Cc2c[nH]c3ccccc23)CC[C@@H]1c1ccccc1
22,> 25 µM,O=C1Cc2c(cc(Br)cc2C(=O)Nc2ccc3c(c2)C(=O)OC3)N1
23,44.4 µM,c1cnc2c(CN3CCC(c4c[nH]c5cccnc45)CC3)c[nH]c2c1
24,> 25 µM,Cc1c(C(=O)Nc2cc(-c3ccccc3)ccn2)cc(C2CC2)n1C
25,> 99.5 µM,C[C@@H](C(=O)Nc1cccc(CN)c1)c1ccc(OCc2ccccc2)cc1

row,Compound,IC50
1,O=C(Nc1ccc2c(c1)[C@H]1CC[C@H]2N1)c1cc(Cl)cc2[nH]ncc12,5.65 µM
2,O=C(Nc1cc(Cl)cc(-c2ccc(C3(C(=O)O)CCNCC3)cc2)c1)OCc1ccccc1,> 99.5 µM

# Source: ChEMBL document CHEMBL5604062, “ASAP - ZIKV NS2B-NS3 protease fluorescence dose response” (2024)
